Here are results for one molecule from patent publication US20170052170A1, “NOVEL CELL LINES AND METHODS” (priority 2009, published 2017).

Structures are written as SMILES.

This test concerns the target T1, sweet taste receptor (T1R2/T1R3) (Homo sapiens, UniProt Q7RTX0+Q8TE23, C757R/I191V/I486V/R317G).
T1 construct: expressed in transfected cells; host or cells: HEK293T (ATCC CRL-11268)
T1 sequence (Q8TE23 20-839 I191V/R317G/I486V): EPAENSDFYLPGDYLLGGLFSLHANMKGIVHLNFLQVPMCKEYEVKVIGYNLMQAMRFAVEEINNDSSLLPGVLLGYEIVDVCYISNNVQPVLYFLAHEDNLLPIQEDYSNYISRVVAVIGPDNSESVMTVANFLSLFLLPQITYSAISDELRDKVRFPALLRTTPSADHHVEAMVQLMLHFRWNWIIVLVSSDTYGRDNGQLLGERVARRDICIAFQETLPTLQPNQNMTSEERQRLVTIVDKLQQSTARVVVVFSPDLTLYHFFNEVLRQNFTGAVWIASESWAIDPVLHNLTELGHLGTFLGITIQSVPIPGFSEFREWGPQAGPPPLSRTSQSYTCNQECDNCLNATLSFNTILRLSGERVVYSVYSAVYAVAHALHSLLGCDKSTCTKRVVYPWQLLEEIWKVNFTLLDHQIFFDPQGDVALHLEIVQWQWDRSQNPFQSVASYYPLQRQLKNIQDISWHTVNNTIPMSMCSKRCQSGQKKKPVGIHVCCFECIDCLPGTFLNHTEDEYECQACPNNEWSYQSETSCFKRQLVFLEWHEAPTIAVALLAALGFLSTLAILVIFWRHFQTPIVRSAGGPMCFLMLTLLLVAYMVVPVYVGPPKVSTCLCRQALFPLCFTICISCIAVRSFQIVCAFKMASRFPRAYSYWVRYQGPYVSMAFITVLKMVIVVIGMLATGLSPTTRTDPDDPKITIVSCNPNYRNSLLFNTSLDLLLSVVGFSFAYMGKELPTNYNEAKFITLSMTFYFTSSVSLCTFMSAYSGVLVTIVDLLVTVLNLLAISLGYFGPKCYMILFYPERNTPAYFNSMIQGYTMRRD
T1 sequence (Q7RTX0 21-852 C757R): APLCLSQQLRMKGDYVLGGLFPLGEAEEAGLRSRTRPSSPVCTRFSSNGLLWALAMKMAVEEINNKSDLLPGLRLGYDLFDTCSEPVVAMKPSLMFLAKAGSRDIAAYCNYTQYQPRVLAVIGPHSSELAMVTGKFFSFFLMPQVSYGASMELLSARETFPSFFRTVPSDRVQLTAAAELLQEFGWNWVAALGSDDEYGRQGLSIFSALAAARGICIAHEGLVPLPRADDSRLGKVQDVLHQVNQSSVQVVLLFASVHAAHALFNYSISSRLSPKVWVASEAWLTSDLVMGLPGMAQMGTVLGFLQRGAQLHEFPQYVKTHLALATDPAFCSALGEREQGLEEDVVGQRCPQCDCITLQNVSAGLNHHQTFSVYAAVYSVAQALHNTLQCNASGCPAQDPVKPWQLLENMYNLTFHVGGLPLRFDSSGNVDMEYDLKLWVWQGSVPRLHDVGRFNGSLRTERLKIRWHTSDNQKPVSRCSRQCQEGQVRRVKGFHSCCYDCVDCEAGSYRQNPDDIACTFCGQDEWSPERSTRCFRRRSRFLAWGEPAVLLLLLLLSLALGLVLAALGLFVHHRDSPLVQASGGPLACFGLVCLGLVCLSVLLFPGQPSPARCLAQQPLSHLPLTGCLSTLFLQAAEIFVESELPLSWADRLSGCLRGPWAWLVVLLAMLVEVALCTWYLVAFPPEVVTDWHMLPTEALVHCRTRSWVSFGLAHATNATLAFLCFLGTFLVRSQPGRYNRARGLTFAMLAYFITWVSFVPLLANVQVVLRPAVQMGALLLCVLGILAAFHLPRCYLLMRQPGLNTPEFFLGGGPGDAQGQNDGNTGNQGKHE
Put plainly: Sweet cell-based calcium flux assay, HEK293T cells expressing T1R2, T1R3 and mouse Gα15. A general note: Calcium flux is commonly read through the fluorescence of an indicator in the cells.

Source text: Plates are then loaded on a high throughput plate reader (Hamamatsu FDSS). […] Calcium flux is detected for 90 seconds.

As to `O=C(CO)[C@@H](O)[C@H](O)[C@H](O)CO` [fructose], the half-maximal effective concentration (EC50) (as a rule, the concentration giving half of the maximal effect) was less than 4.3 mM. Also, the “response of cells grown in the "Final" growth conditions” value (FIG. 20, high density, coated plates, low glucose media, serum deprivation) was “respond robustly”.
